In patent US3966978A (American Cyanamid Company, priority 1975, dated 1976):
Values joined by “and” are separate entries in the source; they are usually repeats but may differ in a detail not shown here. Identical values can stand only once.

Key:
[1] = system: respiratory depression associated with platelet aggregation and thrombosis induced by arachidonic acid; assay: Respiratory depression induced by arachidonic acid in mice; format: in vivo
Method: Two hours later a challenge dose of arachidonic acid was given to the mice intravenously at a concentration of 50 mg./kg. The period of respiratory distress for each animal was recorded in seconds by observation. The results appear in Table III in comparison with controls who received only starch vehicle.

[2] = system: platelet rich plasma; assay: Collagen-induced aggregation of platelet rich plasma from orally treated male rats; format: in vivo; conditions: Rattus norvegicus, po, 2 h, 100 mg./kg. orally, bled after one to two hours, collagen 500 mcg./ml., read-out: Percent Inhibition of aggregation
Method: In a second test the in vivo activity of the compound was established. In this test the compound was administered orally to male rats at a concentration of 100 mg./kg. After one to two hours, the rats were bled and platelet rich plasma obtained. Collagen, at a concentration of 500 mcg./ml. was added to induce platelet aggregation and comparisons were made between control and treated samples. The percent inhibition of aggregation produced by the compound of this invention appears in Table II.

[3] = system: human platelet rich plasma; assay: Collagen-induced platelet aggregation in vitro in human platelet rich plasma (method of Born and O'Brien), change in optical density; format: cell-based; conditions: collagen 500 mcg./ml., read-out: Percent Inhibition (of maximum aggregation response to collagen in a control sample)
Method: Various concentrations of the compound were added in vitro to human platelet rich plasma. Collagen (final concentration 500 mcg./ml.) was added to induce platelet aggregation. Inhibition of platelet aggregation was determined by measuring the change in the optical density of the platelet rich plasma.

[4] = system: pain; conditions: warm-blooded animals; U.S. Pat. No. 3,784,704; cited from earlier work

In the case of O=C(O)Cc1ccc(-c2ccccc2)cc1 [4-Biphenylacetic acid], the “period of respiratory distress, Average, Treated” value ([1]; 100 mg./kg. orally, arachidonic acid 50 mg./kg. i.v. two hours later, average of 21 treated animals (controls 7.58 minutes)) is reported as 1.93 min, the “period of respiratory distress, Time in Seconds, Treated (individual animals)” value ([1]; 100 mg./kg. orally, arachidonic acid 50 mg./kg. i.v. two hours later, individual animals 1-21, one line each in order) is reported as 420 s and 200 s and 30 s and 150 s and 170 s and 80 s and 195 s and 125 s and 35 s and 120 s and 25 s and 20 s and 60 s and 50 s and 90 s and 75 s and 70 s and 189 s and 100 s and the “inhibition of respiratory depression induced by arachidonic acid (in words)” value ([1]; in vivo) is reported as “inhibits the respiratory depression”. For the same compound, the inhibition at 100 mg/kg [2] was 12%, the inhibition at 25 µg/mL ([3]; concentration 25 mcg./ml.) was 38.6% and the inhibition at 250 µg/mL ([3]; concentration 250 mcg./ml.) was 40.7%. The “amelioration of pain (in words)” value [4] was “long lasting amelioration of pain”.
